Measured values published in patent US7205382B2, “Peptides, the production and use thereof for binding immunoglobulins” (Fresenius Medical Care Affina GmbH, priority 2000, dated 2007).
Bridge positions count the residues as written; N and C are the ends. Square brackets hold non-standard residues; d marks the D form. Ends that are not written are not given here. cellulose = not defined here; βAla = NCCC(=O)O

Key:
[1] = test system: immunoglobulins from human plasma; assay: Affinity chromatography of human plasma on peptide-sepharose matrices, binding capacity for immunoglobulins; settings: 6 volume fractions per column volume, 80 cm/h, elution pH 2.8
Procedure: For immobilization to a solid phase, the peptides were dissolved in coupling buffer (30% (v/v) acetonitrile, 0.5 M NaCl, 0.1 M NaHCO3, pH 8.3) to a concentration of 1 mg/ml and mixed with washed and CNBr-preactivated sepharose 4B at a volume ratio of 10:1. After completion of the coupling reaction, the peptide. matrices were washed with coupling buffer, and the excess CNBr groups were inactivated by incubation of the matrix in Tris buffer (100 mM Tris-HCl, 500 mM NaCl, pH 8.0).
The peptide loadings of the matrices were determined by photometry (A280 nm) by establishing the difference between the peptide mass employed before coupling and the non-immobilized peptide mass after coupling.
The peptide matrices were tested by means of affinity chromatography for their binding capacity and binding specificity for immunoglobulins with human plasma as a sample. Thus, 6 volume fractions of human plasma as the sample was passed through 1 column volume fraction of peptide matrix at a linear flow rate of 80 cm/h.
Prior to sample application, the affinity-chromatographic column was equilibrated with PBS, pH 7.2. […]
The determination of the concentration of the eluted protein was effected by photometric measurement of the adsorption at 280 nm. The immunoglobulin concentration was calculated therefrom with ε280 nm=1.35 cm^2/mg for IgG.

[2] = test system: human IgG-Fc; assay: Cellulose-immobilized 13-mer peptide variants incubated with human IgG-Fc, anti-human IgG-AP detection; assay type: binding; parameters: key: No binding of immunoglobulin for the defined peptide variant, detection negative: 0; Binding of immunoglobulin for the defined peptide variant, detection positive: +; settings: IgG-Fc 1 μg/ml in blocking buffer, 3 h room temperature
Outline: (§1)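 Peptides on cellulose via a (βA)(βA) spacer were blocked in T-TBS (pH 8.0) with 5% saccharose and 4% BSA, then exposed for 3 h at room temperature to IgG-Fc (1 μg/ml), serum diluted 1:10,000, or blocking buffer alone. Bound IgG was detected with AP-anti-human IgG (1.2 μg/ml) and NBT/BCIP colour development.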

[3] = test system: immunoglobulins in human plasma; assay: Cellulose-immobilized 13-mer peptide variants incubated with human plasma, anti-human IgG-AP detection; assay type: binding; parameters: key: No binding of immunoglobulin for the defined peptide variant, detection negative: 0; Binding of immunoglobulin for the defined peptide variant, detection positive: +; settings: human plasma as sample, diluted 1:10,000 in blocking buffer, 3 h room temperature
Outline: as §1

[4] = test system: serum albumin; assay: Cellulose-immobilized 13-mer peptide variants incubated with serum albumin (negative control), anti-human IgG-AP detection; assay type: binding; parameters: key: No binding of immunoglobulin for the defined peptide variant, detection negative: 0; Binding of immunoglobulin for the defined peptide variant, detection positive: +; settings: blocking buffer without addition, 3 h room temperature
Outline: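 Spot membrane, (βA)(βA) spacer; T-TBS pH 8.0 wash, block 5% saccharose/4% BSA. 3 h RT with IgG-Fc 1 μg/ml, serum 1:10,000, or block buffer only (specificity control). 3× wash, AP-anti-human IgG 1.2 μg/ml, NBT/BCIP in pH 9.5 buffer.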

Q: How did the “Rel. capacity: mg of bound protein/mg of peptide matrix loading” value [1] turn out when “acetyl-D-S-A-W-H-L-G-E-L-V-W-C-T-((βA)(βA)K) (Ac-DSAWHLGELVWCT[βAla][βAla]K; also: immobilized on sepharose 4B) [Peptide matrix A1]” was run?
A: The value was 0.53 mg/mg.

Q: And the “Volume capacity: mg of bound protein/ml of peptide matrix” value [1]?
A: Its value is 4.70 mg/mL.

Q: “06W: cellulose-bound 13-mer variant DCAWHWGELVWCT-(βA)(βA) (DCAWHWGELVWCT-{βAla-βAla-cellulose}; disulfide 2-12 (inferred); not fully specified (N-terminus); printed as DCAWHWGELVWCT-(βA)(βA); reading uncertain)” was tested. Which “Result for incubation with human IgG-Fc (immunoglobulin binding detection)” value (“Result for incubation with human IgG-Fc” for short) [2] did it give?
A: Its value is 0.

Q: And the “Result for incubation with human plasma (immunoglobulin binding detection)” value (from here on “Result for incubation with human plasma”) [3]?
A: Its value is 0.

Q: What about the “Result for incubation with serum albumin (immunoglobulin binding detection)” value (from here on “Result for incubation with serum albumin”) [4] of the same substance?
A: The value was 0.

Q: Which results are given for “03G: cellulose-bound 13-mer variant DCGWHLGELVWCT-(βA)(βA) (DCGWHLGELVWCT-{βAla-βAla-cellulose}; disulfide 2-12 (inferred); reading uncertain; also: printed as DCGWHLGELVWCT-(βA)(βA))”?
A: Result for incubation with human IgG-Fc (immunoglobulin binding detection) [2]: 0; Result for incubation with human plasma (immunoglobulin binding detection) [3]: 0; Result for incubation with serum albumin (immunoglobulin binding detection) [4]: 0

Q: Which results are given for “01Y: cellulose-bound 13-mer variant YCAWHLGELVWCT-(βA)(βA) (YCAWHLGELVWCT-{βAla-βAla-cellulose}; disulfide 2-12 (inferred); reading uncertain; also: printed as YCAWHLGELVWCT-(βA)(βA))”?
A: Result for incubation with human IgG-Fc (immunoglobulin binding detection) [2]: 0; Result for incubation with human plasma (immunoglobulin binding detection) [3]: 0; Result for incubation with serum albumin (immunoglobulin binding detection) [4]: 0

Q: “10T: cellulose-bound 13-mer variant DCAWHLGELTWCT-(βA)(βA) (DCAWHLGELTWCT-{βAla-βAla-cellulose}; disulfide 2-12 (inferred); reading uncertain; also: printed as DCAWHLGELTWCT-(βA)(βA))” was tested. Which “Result for incubation with human IgG-Fc” value [2] did it give?
A: The value was 0.

Q: What about the “Result for incubation with human plasma” value [3] of the same substance?
A: Its value is 0.

Q: What about the “Result for incubation with serum albumin” value [4] of the same substance?
A: Its value is 0.

Q: For “02T: cellulose-bound 13-mer variant DTAWHLGELVWCT-(βA)(βA) (DTAWHLGELVWCT[βAla][βAla]; not fully specified; printed as DTAWHLGELVWCT-(βA)(βA); also: cellulose-bound)”, which “Result for incubation with human IgG-Fc” value [2] is on record?
A: The value was 0.

Q: What about the “Result for incubation with human plasma” value [3] of the same substance?
A: Its value is 0.

Q: What about the “Result for incubation with serum albumin” value [4] of the same substance?
A: Its value is 0.

Q: What does the source list for “01H: cellulose-bound 13-mer variant HCAWHLGELVWCT-(βA)(βA) (HCAWHLGELVWCT-{βAla-βAla-cellulose}; disulfide 2-12 (inferred); reading uncertain; also: printed as HCAWHLGELVWCT-(βA)(βA))”?
A: Result for incubation with human IgG-Fc (immunoglobulin binding detection) [2]: +; Result for incubation with human plasma (immunoglobulin binding detection) [3]: 0; Result for incubation with serum albumin (immunoglobulin binding detection) [4]: 0

Q: With “04N: cellulose-bound 13-mer variant DCANHLGELVWCT-(βA)(βA) (DCANHLGELVWCT[βAla][βAla]; disulfide 2-12 (inferred); also: cellulose-bound)” as the substance, how does the “Result for incubation with human IgG-Fc” value [2] read?
A: The value was “+”.

Q: What about the “Result for incubation with human plasma” value [3] of the same substance?
A: The value was 0.

Q: And the “Result for incubation with serum albumin” value [4]?
A: Its value is 0.

Q: Which results are given for “02Y: cellulose-bound 13-mer variant DYAWHLGELVWCT-(βA)(βA) (DYAWHLGELVWCT[βAla][βAla]; not fully specified; printed as DYAWHLGELVWCT-(βA)(βA); also: cellulose-bound)”?
A: Result for incubation with human IgG-Fc (immunoglobulin binding detection) [2]: 0; Result for incubation with human plasma (immunoglobulin binding detection) [3]: 0; Result for incubation with serum albumin (immunoglobulin binding detection) [4]: 0
